Experimental data reported in patent US11179435B2, “Hangover alleviating composition containing conjugate of sesamol and peptide as active ingredient” (CAREGEN CO., LTD., priority 2017, dated 2021).
Starred links: 1 amine or outer side, 2 acyl side, 3 side chain; linkers in the order of their positions; H or OH if unused. No end group written: not given here. Suc = O=C(CCC(=O)[*:2])[*:1]

How the values were obtained:
Type in all cases: cell-based, human
[1] = tested on: aldehyde dehydrogenase (ALDH); test: ALDH activity assay in HepG2 cells treated with conjugate; conditions: 50 μM or 100 μM, 24 hours, compared to untreated control group
Protocol: Alcohol was converted to acetaldehyde by alcohol dehydrogenase (ADH), an alcohol degrading enzyme, and the converted acetaldehyde was converted and degraded to acetate by aldehyde dehydrogenase (ALDH). Therefore, in order to confirm the effect of increasing the activity of ALDH involved in the alcohol degradation process, liver carcinoma cells were treated with the two types of conjugates of the sesamol and the peptides prepared in [Preparation Example 2], respectively, and then the ALDH activity assay was performed.
Specifically, liver hepatocellular carcinoma (HepG2) cells, which were human liver carcinoma cells, were inoculated into a 6-well plate at a density of 4×10^5 cells/well and then incubated overnight. Thereafter, the two types of conjugates of the sesamol and the peptides prepared in [Preparation Example 2] were treated at a concentration of 50 μM or 100 μM, respectively, and incubated for 24 hours, and the cells were collected and then the ALDH activity was analyzed using an ALDH activity assay kit (abcam, ab155893). Meanwhile, a positive control group was treated with 5 μM sulfolaphane.
For the ALDH activity assay, each of the collected cells was treated with an ALDH activity assay buffer included in the kit, and then lysed with a homogenizer under ice. […] Thereafter, the ALDH activity was calculated using the following [Equation 1]. […]

[2] = tested on: ADH4; test: RT-PCR mRNA expression in HepG2 cells; conditions: 10 μM or 50 μM, 6 hours, compared with untreated control group
Protocol: (§1) In order to confirm an effect of increasing the expression of ADH and ALDH involved in the alcohol degradation process, liver carcinoma cells were treated with the two types of conjugates of the sesamol and the peptides prepared in [Preparation Example 2], respectively, and then RT-PCR was performed.
(§2) Specifically, HepG2 cells were inoculated in a 6-well plate at a density of 4×10^5 cells/well, and then incubated overnight. Thereafter, the two types of conjugates of the sesamol and the peptides prepared in [Preparation Example 2] were treated at a concentration of 10 μM or 50 μM, respectively, and incubated for 6 hours, and the cells were collected. Thereafter, the total RNA was isolated from the collected cells according to a manufacturer's protocol using Trizol (Invitrogen, USA), and then 1 μg of the isolated RNA was synthesized to cDNA according to a manufacturer's protocol using a cDNA synthesis kit (Intron, Korea). The cDNA was subjected to PCR using primers shown in Table 2 below, and then electrophoresed on a 5% agarose gel to confirm mRNA expression levels of ADH4, ALDH1, and ALDH2.

[3] = tested on: ALDH2; test: RT-PCR mRNA expression in HepG2 cells; conditions: 10 μM or 50 μM, 6 hours, compared with untreated control group
Protocol: as §1, §2

[4] = tested on: ALDH1; test: RT-PCR mRNA expression in HepG2 cells; conditions: 10 μM or 50 μM, 6 hours, compared with untreated control group
Protocol: as §1, §2

“SEQ ID NO: 1: Sesamol linked via succinyl linker to the N-terminus of peptide SIPCKLQSG (SEQ ID NO: 1) ({sesamol-Suc}-SIPCKLQSG)” was tested, and the ALDH activity [1] was “increased in a concentration-dependent manner”, the “mRNA expression of ADH4” value [2] was “significantly increased” and the “mRNA expression of ALDH2” value [3] was “significantly increased”. The “mRNA expression of ALDH1” value [4] was “significantly increased”.
